# Experimental data: ChEMBL document CHEMBL1201861, “Genomics of Drug Sensitity in Cancer screening data, Wellcome Trust Sanger Institute”
# Tests used:
# Assay in all cases: cells
# UO-31 = assay type: functional, cell-based, Homo sapiens;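 note: cell viability assay measuring inhibition of cell growth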
# Description: SANGER: Inhibition of human U031 cell growth in a cell viability assay.
# PC-3 = assay type: functional, cell-based, Homo sapiens;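 note: cell viability assay measuring growth inhibition of PC-3 cells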
# Description: SANGER: Inhibition of human PC-3 cell growth in a cell viability assay.
# COLO-680N = assay type: functional, cell-based, Homo sapiens;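 note: cell viability assay used to measure inhibition of COLO-680N cell growth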
# Description: SANGER: Inhibition of human COLO-680N cell growth in a cell viability assay.
# Calu-3 = assay type: functional, cell-based, Homo sapiens;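 note: growth inhibition of human Calu-3 cells, determined with a cell viability assay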
# Description: SANGER: Inhibition of human Calu-3 cell growth in a cell viability assay.
# HMV-2 cell line = assay type: functional, cell-based, Homo sapiens;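 note: growth inhibition of HMV-II cells, read out with a cell viability assay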
# Description: SANGER: Inhibition of human HMV-II cell growth in a cell viability assay.
# BFTC-905 = assay type: functional, cell-based, Homo sapiens
# Description: SANGER: Inhibition of human BFTC-905 cell growth in a cell viability assay.
# CAPAN-1 = assay type: functional, cell-based, Homo sapiens;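 note: growth suppression of CAPAN-1 cells, read out by a cell viability assay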
# Description: SANGER: Inhibition of human CAPAN-1 cell growth in a cell viability assay.
# SW1417 = assay type: functional, cell-based, Homo sapiens;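 note: growth inhibition of human SW1417 cells, read out with a cell viability assay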
# Description: SANGER: Inhibition of human SW1417 cell growth in a cell viability assay.
# BCPAP = assay type: functional, cell-based, Homo sapiens;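 note: growth inhibition of BCPAP cells, read out in a cell viability assay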
# Description: SANGER: Inhibition of human BCPAP cell growth in a cell viability assay.
# LK-2 = assay type: functional, cell-based, Homo sapiens;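 note: growth inhibition of LK-2 cells, read out with a viability assay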
# Description: SANGER: Inhibition of human LK-2 cell growth in a cell viability assay.
# NCI-H2081 = assay type: functional, cell-based, Homo sapiens;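 note: growth inhibition of human NCI-H2081 cells, read out with a cell viability assay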
# Description: SANGER: Inhibition of human NCI-H2081 cell growth in a cell viability assay.
# CAL-33 = assay type: functional, cell-based, Homo sapiens;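 note: growth inhibition of CAL-33 cells, read out with a cell viability assay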
# Description: SANGER: Inhibition of human CAL-33 cell growth in a cell viability assay.
# CAMA-1 = assay type: functional, cell-based, Homo sapiens;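 note: growth inhibition of CAMA-1 cells, read out with a cell viability assay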
# Description: SANGER: Inhibition of human CAMA-1 cell growth in a cell viability assay.
# MG-63 = assay type: functional, cell-based, Homo sapiens;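 note: growth inhibition of human MG-63 cells, read out with a cell viability assay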
# Description: SANGER: Inhibition of human MG-63 cell growth in a cell viability assay.
# ECC4 = assay type: functional, cell-based, Homo sapiens;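 note: growth inhibition of ECC4 cells, read out with a cell viability assay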
# Description: SANGER: Inhibition of human ECC4 cell growth in a cell viability assay.
# NCI-H2405 = assay type: functional, cell-based, Homo sapiens;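 note: growth inhibition of the human cell line, read out with a cell viability assay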
# Description: SANGER: Inhibition of human NCI-H2405 cell growth in a cell viability assay.
# NCI-H2052 = assay type: functional, cell-based, Homo sapiens;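 note: growth inhibition of NCI-H2052 cells, read out with a cell viability assay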
# Description: SANGER: Inhibition of human NCI-H2052 cell growth in a cell viability assay.
# PANC-08-13 = assay type: functional, cell-based, Homo sapiens;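 note: cell growth inhibition, measured with a cell viability assay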
# Description: SANGER: Inhibition of human PANC-08-13 cell growth in a cell viability assay.
# A673 = assay type: functional, cell-based, Homo sapiens;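 note: growth inhibition of human A673 cells, read out through a cell viability assay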
# Description: SANGER: Inhibition of human A673 cell growth in a cell viability assay.
# 23132-87 = assay type: functional, cell-based, Homo sapiens
# Description: SANGER: Inhibition of human 23132-87 cell growth in a cell viability assay.
# HuCCT-1 = assay type: functional, cell-based, Homo sapiens, HuCCT1;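 note: growth inhibition of HuCCT-1 cells, read out by a cell viability assay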
# Description: SANGER: Inhibition of human HuCCT1 cell growth in a cell viability assay.
# SK-MEL-30 = assay type: functional, cell-based, Homo sapiens;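 note: growth inhibition of SK-MEL-30 cells, determined with a cell viability assay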
# Description: SANGER: Inhibition of human SK-MEL-30 cell growth in a cell viability assay.
# SK-MES-1 = assay type: functional, cell-based, Homo sapiens;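 note: growth inhibition of human SK-MES-1 cells, read out with a cell viability assay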
# Description: SANGER: Inhibition of human SK-MES-1 cell growth in a cell viability assay.
# FaDu = assay type: functional, cell-based, Homo sapiens;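 note: cell viability readout of growth inhibition in FaDu cells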
# Description: SANGER: Inhibition of human FADU cell growth in a cell viability assay.
# NCI-H64 = assay type: functional, cell-based, Homo sapiens;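 note: growth inhibition of NCI-H64 cells, read out with a cell viability assay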
# Description: SANGER: Inhibition of human NCI-H64 cell growth in a cell viability assay.
# EFM-19 = assay type: functional, cell-based, Homo sapiens;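 note: growth inhibition of human EFM-19 cells, measured in a cell viability assay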
# Description: SANGER: Inhibition of human EFM-19 cell growth in a cell viability assay.
# SW1463 = assay type: functional, cell-based, Homo sapiens;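 note: growth inhibition of SW1463 cells, determined with a cell viability assay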
# Description: SANGER: Inhibition of human SW1463 cell growth in a cell viability assay.
# NALM-6 = assay type: functional, cell-based, Homo sapiens;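 note: growth inhibition of NALM-6 cells, read out with a cell viability assay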
# Description: SANGER: Inhibition of human NALM-6 cell growth in a cell viability assay.
# MKN-7 = assay type: functional, cell-based, Homo sapiens;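 note: growth inhibition of MKN-7 cells, read out with a cell viability assay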
# Description: SANGER: Inhibition of human MKN7 cell growth in a cell viability assay.
# SUP-T1 = assay type: functional, cell-based, Homo sapiens;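 note: growth inhibition of human SUP-T1 cells, read out as cell viability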
# Description: SANGER: Inhibition of human SUP-T1 cell growth in a cell viability assay.
# HO-1-N-1 = assay type: functional, cell-based, Homo sapiens;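 note: growth inhibition of human HO-1-N-1 cells, read out with a cell viability assay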
# Description: SANGER: Inhibition of human HO-1-N-1 cell growth in a cell viability assay.
# TUR = assay type: functional, cell-based, Homo sapiens;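 note: growth inhibition of human TUR cells, read out with a cell viability assay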
# Description: SANGER: Inhibition of human TUR cell growth in a cell viability assay.
# DU-145 = assay type: functional, cell-based, Homo sapiens
# Description: SANGER: Inhibition of human DU-145 cell growth in a cell viability assay.
# HSC-4 = assay type: functional, cell-based, Homo sapiens;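 note: growth inhibition of human HSC-4 cells, read out with a cell viability assay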
# Description: SANGER: Inhibition of human HSC-4 cell growth in a cell viability assay.
# 8505C = assay type: functional, cell-based, Homo sapiens
# Description: SANGER: Inhibition of human 8505C cell growth in a cell viability assay.
# ACHN = assay type: functional, cell-based, Homo sapiens;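 note: cell viability read-out used to gauge how strongly growth of human ACHN cells is suppressed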
# Description: SANGER: Inhibition of human ACHN cell growth in a cell viability assay.
# LCLC-103H cell line = assay type: functional, cell-based, Homo sapiens
# Description: SANGER: Inhibition of human LCLC-103H cell growth in a cell viability assay.
# MDA-MB-415 = assay type: functional, cell-based, Homo sapiens
# NCI-H345 = assay type: functional, cell-based, Homo sapiens;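 note: growth inhibition of NCI-H345 cells measured with a cell viability assay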
# Description: SANGER: Inhibition of human NCI-H345 cell growth in a cell viability assay.
# HCC70 = assay type: functional, cell-based, Homo sapiens;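 note: cell viability assay measuring how strongly the compound suppresses proliferation of HCC70 cells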
# Description: SANGER: Inhibition of human HCC70 cell growth in a cell viability assay.
# KYSE-450 = assay type: functional, cell-based, Homo sapiens;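 note: cell growth inhibition measured by a viability assay in human KYSE-450 cells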
# Description: SANGER: Inhibition of human KYSE-450 cell growth in a cell viability assay.
# CAL-62 = assay type: functional, cell-based, Homo sapiens;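 note: growth inhibition of CAL-62 cells, read out with a cell viability assay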
# Description: SANGER: Inhibition of human CAL-62 cell growth in a cell viability assay.
# MDA-MB-453 = assay type: functional, cell-based, Homo sapiens
# Description: SANGER: Inhibition of human MDA-MB-453 cell growth in a cell viability assay.
# SW13 = assay type: functional, cell-based, Homo sapiens;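 note: IC50 is inhibition of SW13 cell growth, read out with a cell viability assay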
# Description: SANGER: Inhibition of human SW13 cell growth in a cell viability assay.
# COR-L23 = assay type: functional, cell-based, Homo sapiens;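 note: cell viability assay measuring how strongly compounds suppress growth of COR-L23 cells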
# Description: SANGER: Inhibition of human COR-L23 cell growth in a cell viability assay.
# A-431 = assay type: functional, cell-based, Homo sapiens;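 note: growth inhibition of A-431 cells, determined with a cell viability read-out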
# Description: SANGER: Inhibition of human A431 cell growth in a cell viability assay.
compound,measurement,setting,value
BLEOMYCIN,IC50,UO-31; uo-31,0.934 µM
same,IC50,PC-3; pc-3,13.3 µM
same,IC50,COLO-680N; colo-680n,5.76 µM
same,IC50,Calu-3; calu-3,6.19 µM
same,IC50,HMV-2 cell line; hmv-2,0.0697 µM
same,IC50,BFTC-905; bftc-905,2.32 µM
same,IC50,CAPAN-1; capan-1,2.92 µM
same,IC50,SW1417; sw1417,249 µM
same,IC50,BCPAP; bcpap,1.44 µM
same,IC50,LK-2; lk-2,1.69 µM
same,IC50,NCI-H2081; nci-h2081,221 µM
same,IC50,CAL-33; cal-33,2.15 µM
same,IC50,CAMA-1; cama-1,17.5 µM
same,IC50,MG-63; mg-63,1.49 µM
same,IC50,ECC4; ecc4,56.7 µM
same,IC50,NCI-H2405; nci-h2405,4.28 µM
same,IC50,NCI-H2052; nci-h2052,2.97 µM
same,IC50,PANC-08-13; panc-08-13,12.1 µM
same,IC50,A673; a673,10.5 µM
same,IC50,23132-87,0.131 µM
same,IC50,HuCCT-1; hucct1,10.9 µM
same,IC50,SK-MEL-30; sk-mel-30,0.377 µM
same,IC50,SK-MES-1; sk-mes-1,3.07 µM
same,IC50,FaDu; fadu,5.14 µM
same,IC50,NCI-H64; nci-h64,0.641 µM
same,IC50,EFM-19; efm-19,0.0148 µM
same,IC50,SW1463; sw1463,23.4 µM
same,IC50,NALM-6; nalm-6,0.42 µM
same,IC50,MKN-7; mkn-7,66.5 µM
same,IC50,SUP-T1; sup-t1,0.000251 µM
same,IC50,HO-1-N-1; ho-1-n-1,4.42 µM
same,IC50,TUR; tur,18.9 µM
same,IC50,DU-145; du-145,0.823 µM
same,IC50,HSC-4; hsc-4,153 µM
same,IC50,8505C; 8505c,1.04 µM
same,IC50,ACHN; achn,0.375 µM
same,IC50,LCLC-103H cell line; lclc-103h,0.144 µM
same,IC50,MDA-MB-415; mda-mb-415,67.3 µM
same,IC50,NCI-H345; nci-h345,814 µM
same,IC50,HCC70; hcc70,126 µM
same,IC50,KYSE-450; kyse-450,1.93 µM
same,IC50,CAL-62; cal-62,3.34 µM
same,IC50,MDA-MB-453; mda-mb-453,15.4 µM
same,IC50,SW13; sw13,0.0816 µM
same,IC50,COR-L23; cor-l23,0.0755 µM
same,IC50,A-431; a-431,2.11 µM
Cc1cc([N+](=O)[O-])ccc1NS(=O)(=O)c1cc(Cl)ccc1Cl,IC50,"UO-31; Homo sapiens, UO-31",8.66 µM
same,IC50,"PC-3; Homo sapiens, PC-3",8.12 µM
same,IC50,"COLO-680N; Homo sapiens, COLO-680N",12.5 µM
same,IC50,"Calu-3; Homo sapiens, Calu-3",2.87 µM
same,IC50,"HMV-2 cell line; Homo sapiens, HMV-2",1.54 µM
same,IC50,"BFTC-905; Homo sapiens, BFTC-905",3.65 µM
same,IC50,"CAPAN-1; Homo sapiens, CAPAN-1",2.4 µM
same,IC50,"SW1417; Homo sapiens, SW1417",11.4 µM
same,IC50,"BCPAP; Homo sapiens, BCPAP",2.05 µM
same,IC50,"LK-2; Homo sapiens, LK-2",0.928 µM
same,IC50,"NCI-H2081; Homo sapiens, NCI-H2081",> 32 µM
same,IC50,"CAL-33; Homo sapiens, CAL-33",3.56 µM
same,IC50,"CAMA-1; Homo sapiens, CAMA-1",0.911 µM
same,IC50,"MG-63; Homo sapiens, MG-63",5.96 µM
same,IC50,"ECC4; Homo sapiens, ECC4",> 32 µM
same,IC50,"NCI-H2405; Homo sapiens, NCI-H2405",3.96 µM
same,IC50,"NCI-H2052; Homo sapiens, NCI-H2052",18.2 µM
same,IC50,"PANC-08-13; Homo sapiens, PANC-08-13",> 32 µM
same,IC50,"A673; Homo sapiens, A673",3 µM
same,IC50,23132-87; Homo sapiens,3.5 µM
same,IC50,"HuCCT-1; Homo sapiens, HuCCT-1",7.32 µM
same,IC50,"SK-MEL-30; Homo sapiens, SK-MEL-30",5.76 µM
same,IC50,"SK-MES-1; Homo sapiens, SK-MES-1",2.07 µM
same,IC50,"FaDu; Homo sapiens, FaDu",4.28 µM
same,IC50,"NCI-H64; Homo sapiens, NCI-H64",> 32 µM
same,IC50,"EFM-19; Homo sapiens, EFM-19",5.44 µM
same,IC50,"SW1463; Homo sapiens, SW1463",7.85 µM
same,IC50,"NALM-6; Homo sapiens, NALM-6",6.28 µM
same,IC50,"MKN-7; Homo sapiens, MKN-7",> 32 µM
same,IC50,"SUP-T1; Homo sapiens, SUP-T1",5.41 µM
same,IC50,"HO-1-N-1; Homo sapiens, HO-1-N-1",> 32 µM
same,IC50,"TUR; Homo sapiens, TUR",9.58 µM
same,IC50,"DU-145; Homo sapiens, DU-145",4.69 µM
same,IC50,"HSC-4; Homo sapiens, HSC-4",12.2 µM
same,IC50,"8505C; Homo sapiens, 8505C",2.67 µM
same,IC50,"ACHN; Homo sapiens, ACHN",4.6 µM
same,IC50,"LCLC-103H cell line; Homo sapiens, LCLC-103H",5.6 µM
same,IC50,"MDA-MB-415; Homo sapiens, MDA-MB-415",4.7 µM
same,IC50,"NCI-H345; Homo sapiens, NCI-H345",17.8 µM
same,IC50,"HCC70; Homo sapiens, HCC70",6.62 µM
same,IC50,"KYSE-450; Homo sapiens, KYSE-450",6.37 µM
same,IC50,"CAL-62; Homo sapiens, CAL-62",2.65 µM
same,IC50,"MDA-MB-453; Homo sapiens, MDA-MB-453",10.8 µM
same,IC50,"SW13; Homo sapiens, SW13",1.99 µM
same,IC50,"COR-L23; Homo sapiens, COR-L23",2.63 µM
same,IC50,"A-431; Homo sapiens, A-431",2.09 µM
Nc1ccn([C@@H]2O[C@H](CO)[C@@H](O)C2(F)F)c(=O)n1 [GEMCITABINE],IC50,"UO-31; Homo sapiens, UO-31",< 0.004 µM
same,IC50,"PC-3; Homo sapiens, PC-3",> 1.02 µM
same,IC50,"COLO-680N; Homo sapiens, COLO-680N",0.0755 µM
same,IC50,"Calu-3; Homo sapiens, Calu-3",0.0173 µM
same,IC50,"HMV-2 cell line; Homo sapiens, HMV-2",0.0243 µM
same,IC50,"BFTC-905; Homo sapiens, BFTC-905",< 0.004 µM
same,IC50,"CAPAN-1; Homo sapiens, CAPAN-1",0.00923 µM
same,IC50,"SW1417; Homo sapiens, SW1417",> 1.02 µM
same,IC50,"BCPAP; Homo sapiens, BCPAP",0.00145 µM
same,IC50,"LK-2; Homo sapiens, LK-2",> 1.02 µM
same,IC50,"NCI-H2081; Homo sapiens, NCI-H2081",0.311 µM
same,IC50,"CAL-33; Homo sapiens, CAL-33",0.00189 µM
same,IC50,"CAMA-1; Homo sapiens, CAMA-1",0.396 µM
same,IC50,"MG-63; Homo sapiens, MG-63",0.00133 µM
same,IC50,"ECC4; Homo sapiens, ECC4",> 1.02 µM
same,IC50,"NCI-H2405; Homo sapiens, NCI-H2405",0.0191 µM
same,IC50,"NCI-H2052; Homo sapiens, NCI-H2052",0.145 µM
same,IC50,"PANC-08-13; Homo sapiens, PANC-08-13",> 1.02 µM
same,IC50,"A673; Homo sapiens, A673",0.0342 µM
same,IC50,23132-87; Homo sapiens,0.0431 µM
same,IC50,"HuCCT-1; Homo sapiens, HuCCT-1",0.0206 µM
same,IC50,"SK-MEL-30; Homo sapiens, SK-MEL-30",< 0.004 µM
same,IC50,"SK-MES-1; Homo sapiens, SK-MES-1",< 0.004 µM
same,IC50,"FaDu; Homo sapiens, FaDu",0.105 µM
same,IC50,"NCI-H64; Homo sapiens, NCI-H64",0.151 µM
same,IC50,"EFM-19; Homo sapiens, EFM-19",> 1.02 µM
same,IC50,"SW1463; Homo sapiens, SW1463",0.51 µM
same,IC50,"NALM-6; Homo sapiens, NALM-6",< 0.004 µM
same,IC50,"MKN-7; Homo sapiens, MKN-7",> 1.02 µM
same,IC50,"SUP-T1; Homo sapiens, SUP-T1",0.0235 µM
same,IC50,"HO-1-N-1; Homo sapiens, HO-1-N-1",0.0238 µM
same,IC50,"TUR; Homo sapiens, TUR",0.032 µM
same,IC50,"DU-145; Homo sapiens, DU-145",0.00929 µM
same,IC50,"HSC-4; Homo sapiens, HSC-4",< 0.004 µM
same,IC50,"8505C; Homo sapiens, 8505C",0.00106 µM
same,IC50,"ACHN; Homo sapiens, ACHN",< 0.004 µM
same,IC50,"LCLC-103H cell line; Homo sapiens, LCLC-103H",0.0333 µM
same,IC50,"MDA-MB-415; Homo sapiens, MDA-MB-415",> 1.02 µM
same,IC50,"NCI-H345; Homo sapiens, NCI-H345",> 1.02 µM
same,IC50,"HCC70; Homo sapiens, HCC70",> 1.02 µM
same,IC50,"KYSE-450; Homo sapiens, KYSE-450",0.00632 µM
same,IC50,"CAL-62; Homo sapiens, CAL-62",0.00122 µM
same,IC50,"MDA-MB-453; Homo sapiens, MDA-MB-453",> 1.02 µM
same,IC50,"SW13; Homo sapiens, SW13",0.33 µM
same,IC50,"COR-L23; Homo sapiens, COR-L23",0.0141 µM
same,IC50,"A-431; Homo sapiens, A-431",< 0.004 µM
